Results on seven compounds are retold here after patent US20030130290A1, “Fungicidal combinations comprising thieno[2,3-d]pyrimidin-4-one” (priority 1997, published 2003).

For assay [1], the system named is Erysiphe graminis f.sp. tritici. Description: Efficacy against Erysiphe graminis f.sp. tritici on wheat (Example B-1), spray application. Format: in vivo, Erysiphe graminis f.sp. tritici on wheat plants c.v. Arina. From the text: (§1) A synergistic effect exists whenever the action of an active ingredient combination is greater than the sum of the actions of the individual components.
(§2) The action to be expected E for a given active ingredient combination obeys the so-called COLBY formula and can be calculated as follows (COLBY, S. R. “Calculating synergistic and antagonistic responses of herbicide combination”. Weeds, Vol. 15, pages 20-22; 1967):
(§3) According to Colby, the expected (additive) action of active ingredients I+II using p+q ppm of active ingredient is [formula]
(§4) If the action actually observed (O) is greater than the expected action (E), then the action of the combination is superadditive, i.e. there is a synergistic effect. Alternatively the synergistic action may also be determined from the dose response curves according to the so-called WADLEY method. With this method the efficacy of the a.i. is determined by comparing the degree of fungal attack on treated plants with that on untreated, similarly inoculated and incubated check plants. Each a.i. is tested at 4 to 5 concentrations. The dose response curves are used to establish the EC90 (i.e. concentration of a.i. providing 90% disease control) of the single compounds as well as of the combinations (EC 90observed). The thus experimentally found values of the mixtures at a given weight ratio are compared with the values that would have been found were only a complementary efficacy of the components was present (EC 90 (A+B)expected). The EC90 (A+B)expected is calculated according to Wadley (Levi et al., EPPO- Bulletin 16, 1986, 651-657): [formula]
Wheat plants c.v. “Arina”, about 10 days old, are sprayed with aqueous suspensions of the active ingredients or mixtures thereof. One day later, the plants are inoculated by dusting with spores of Erysiphe graminis. The tests may also be carried out with curative applications, i.e. application 1-3 days after artificial inoculation of the plants. The plants are incubated in the greenhouse or in climate chambers at 20° C., 70% relative humidity. 7 to 10 days after inoculation, fungal attack on primary leaves is assessed.
(§5) The efficacy of the test combinations and the single active ingredients in the above tests is determined by comparing the degree of fungal attack with that on untreated, similarly inoculated check plants.

The next assay relates to Puccinia recondita. Description: Activity against Puccinia recondita in wheat (B-7), spray application. The format is in vivo, Puccinia recondita on wheat plants c.v. Arina. Conditions: Table 5.
From the text: as §1, §2, §3, §4
Wheat plants c.v. “Arina”, about 10 days old, are sprayed with aqueous suspensions of the active ingredients or mixtures thereof. One day later, the plants are inoculated with a spore suspension of the fungus. The test may also be carried out with curative applications, i.e. application 1-3 days later after artificial inoculation of the plants. The plants are incubated in a growth chamber for 2 days at °20° C. and 95-100% relative humidity, then further 10 days at 20° C. and 70% relative humidity. Fungal attack on primary leaves is assessed.
as §5

The subject of assay [2] is Helminthosporium gramineum. Description: Activity against Helminthosporium gramineum on barley (Example B-12), seed treatment. Format: in vivo. Conditions: Table 6.
From the text: as §1, §2, §3, §4
Barley seed which is infected with H.gramineum is harvested from the field. […] About 60 days after sowing, the number of existing plants and the number of infected plants are determined. Symptoms are expressed as typical stripe-shaped spots on the first leaf. The total infection rate is compared with the total infection rate in the comparison seed trays with untreated seeds and expressed as the total percentage infection rate.

For the compound `CC(Cc1ccc(C(C)(C)C)cc1)CN1CCCCC1` (stereo not drawn) [fenpropidine, reference compound], the inhibition at 2.5 ppm in assay [1] (Blumeria graminis, Table 4, 2.5 ppm alone, read-out: % activity observed) amounted to 35%. For the same compound, the inhibition at 5 ppm in assay [1] (Blumeria graminis, Table 4, 5 ppm alone, read-out: % activity observed) was 51%. Also, the inhibition at 10 ppm in assay [1] (Blumeria graminis, Table 4, 10 ppm alone, read-out: % activity observed) stood at 63%.

With `CON=C(C(=O)OC)c1ccccc1CON=C(C)c1cccc(C(F)(F)F)c1` [cmpd. V, methyl 2-{2-[4-(3-trifluoromethylphenyl)-3-aza-2-oxa-3-pentenyl]-phenyl}-2-methoxyimino-acetate, reference compound], the inhibition at 1 ppm in the assay with Puccinia recondita (Puccinia recondita, 1 ppm alone, read-out: % activity observed) came out at 17%. Moreover, the inhibition at 2.5 ppm in the assay on Puccinia recondita (Puccinia recondita, 2.5 ppm alone, read-out: % activity observed) was 32%. Besides, in the assay on Puccinia recondita (Puccinia recondita, 5 ppm alone, read-out: % activity observed), the inhibition at 5 ppm stood at 38%. Moreover, in the assay with Puccinia recondita (Puccinia recondita, 10 ppm alone, read-out: % activity observed), the inhibition at 10 ppm was 37%.

Consider `CCCC1COC(Cn2cncn2)(c2ccc(Cl)cc2Cl)O1` (stereo not drawn) [propiconazole, reference compound], for which the “% activity observed” value in assay [1] (Table 3, 0.1 ppm alone) came to 0%; in assay [1] (Table 3, 0.25 ppm alone), 0%; in assay [1] (Table 3, 0.5 ppm alone) it was 6%; in assay [1] (Table 3, 1 ppm alone) it was 8%; in assay [1] (Table 3, 2.5 ppm alone), 72%.

As to `CCCOc1nc2sc(Cl)cc2c(=O)n1CCC` [cmpd. I.01], the “% activity observed” value in the assay with Puccinia recondita (0.5 ppm alone), in the assay with Puccinia recondita (1 ppm alone), in the assay with Puccinia recondita (2.5 ppm alone), with Puccinia recondita (5 ppm alone), in the assay with Puccinia recondita (10 ppm alone) and in the assay with Puccinia recondita (25 ppm alone) was 0% in each case. Further, the “% activity observed” value in assay [2] (20 g a.i./100 kg seed alone) is listed as 11%; in assay [1] (Table 1, 10 ppm alone), 0%; in assay [1] (Table 1, 25 ppm alone) it was 0%; in assay [1] (Table 1, 50 ppm alone), 12%; in assay [1] (Table 1, 100 ppm alone) it was 26%; in assay [1] (Table 1, 250 ppm alone), 34%. The “% activity observed” value in assay [1] (Table 1, 500 ppm alone) worked out at 66%; in assay [1] (Table 2, 1 ppm alone), 0%; in assay [1] (Table 2, 2.5 ppm alone) it was 0%; in assay [1] (Table 2, 5 ppm alone) it was 8%; in assay [1] (Table 2, 10 ppm alone), 8%; in assay [1] (Table 2, o.5 ppm alone) it was 0%. Further, the “% activity observed” value came to 2% in assay [1] (Table 3, 0.5 ppm alone); 0% in assay [1] (Table 3, 1 ppm alone); 14% in assay [1] (Table 3, 2.5 ppm alone); 8% in assay [1] (Table 3, 5 ppm alone); 4% in assay [1] (Table 3, 10 ppm alone); 0% in assay [1] (Table 4, 0.25 ppm alone). Further, the “% activity observed” value in assay [1] (Table 4, 0.5 ppm alone) was determined as 0%; in assay [1] (Table 4, 1 ppm alone) it was 0%; in assay [1] (Table 4, 2.5 ppm alone), 0%.

As to `N#Cc1c[nH]cc1-c1cccc2c1OC(F)(F)O2` [Fludioxonil, fludioxonil, reference compound], the “% activity observed” value is listed as 2% in assay [1] (Table 1, 10 ppm alone); 0% in assay [1] (Table 1, 25 ppm alone); 6% in assay [1] (Table 1, 50 ppm alone); 14% in assay [1] (Table 1, 100 ppm alone); 19% in assay [1] (Table 1, 250 ppm alone); 27% in assay [1] (Table 1, 500 ppm alone).

Turning to `CC(C1CC1)C(O)(Cn1cncn1)c1ccc(Cl)cc1` (stereo not drawn) [cyproconazole, reference compound], the “% activity observed” value in assay [1] (Table 2, 1 ppm alone) is reported as 8%; in assay [1] (Table 2, 2.5 ppm alone), 49%; in assay [1] (Table 2, 5 ppm alone), 100%; in assay [1] (Table 2, 10 ppm alone), 100%.

For the compound `CC1(C)CC/C(=C\c2ccc(Cl)cc2)C1(O)Cn1cncn1` (stereo not drawn) [triticonazole], the “% activity observed” value in assay [2] (20 g a.i./100 kg seed alone) was 12%; in assay [2] (40 g a.i./100 kg seed alone), 22%.
